The text below walks through data of patent US6407130B1, “Carboxamide-substituted benzimidazoles having tryptase-inhibiting activity” (Boehringer Ingelheim Pharma KG, priority 1999, dated 2002).

Counter-ions that a name gives are not always drawn.

The target of this assay is T1, rh beta tryptase (Homo sapiens, UniProt Q15661).
T1 construct: purchased Promega
T1 sequence (Q15661 31-275): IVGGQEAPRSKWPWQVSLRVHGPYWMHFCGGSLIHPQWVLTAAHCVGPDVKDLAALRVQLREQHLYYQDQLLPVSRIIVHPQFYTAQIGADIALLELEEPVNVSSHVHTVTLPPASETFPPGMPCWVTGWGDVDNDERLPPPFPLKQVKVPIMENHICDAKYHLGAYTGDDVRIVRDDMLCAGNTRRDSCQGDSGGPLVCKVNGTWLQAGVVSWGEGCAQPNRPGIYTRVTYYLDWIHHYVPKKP
Kind of assay: tryptase inhibition test (cleavage of N-p-tosyl-Gly-Pro-Lys-para-nitroaniline, p-nitroaniline measured at 405 nm). The format is biochemical. The following applies: Tris HCl buffer pH 7.4 with calcium and heparin; substrate 0.6 mM; 5 minutes' pre-incubation, 5 minutes incubation at 37° C. The method, then: The compounds according to the invention are characterised by their tryptase-inhibiting activity. This ability to inhibit tryptase was investigated using the test described as follows. The measurement is carried out in Tris HCl buffer (100 mM), which additionally contains calcium (5 mM) and heparin ([…]), at pH 7.4. The standard used is rh beta tryptase which may be obtained commercially from Promega, for example. The substrate used is N-p-tosyl-Gly-Pro-Lys-para-nitroaniline in a concentration of 0.6 mM. The substrate is digested with tryptase to form p-nitroaniline which can be measured at 405 nm. Usually, an incubation period of 5 minutes and an incubation temperature of 37° C. are chosen. The enzyme activity used is 0.91 U/ml. The measurements are carried out in an Autoanalyser (Cobas Bio) made by Hofmann LaRoche. The potential inhibitory substances are used in concentrations of 10 μM in the screening, the inhibition of the tryptase being given in percent. The IC50 is determined at over 70% inhibition (concentration at which 50% of the enzyme activity is inhibited). After 5 minutes' pre-incubation of the potential inhibitory substances, the substrate is added to start the reaction, the formation of p-nitroaniline being taken as a measurement of the enzyme activity after 5 minutes, after testing the linearity.
As usually defined, the IC50 is the concentration that gives 50% inhibition. Take `Cn1c(CCc2ccc(C(=N)N)cc2)nc2cc(N(Cc3cccc4ccccc34)C(=O)CCCc3ccc(N)cc3)ccc21` [Example 47, N-{2-[2-(4-Amidinophenyl)-ethyl]-1-methyl-benzimidazol-5-yl}-N-( - naphthylmethyl)-[4-(4-aminophenyl)-butyroamide]-dihydrochloride]: the IC50 was determined as 12 nM.
For `Cn1c(CCc2ccc(C(=N)N)cc2)nc2cc(N(Cc3cccc4ccccc34)C(=O)CNCc3cccc(C(=N)N)c3)ccc21` [Example 8, N-{2-[2-(4-Amidinophenyl)-ethyl]-1-methylbenzimidazol-5-yl}-N-(α-naphthylmethyl)-[3-amidinobenzylaminoacetamide]-trihydrochloride], the IC50 amounted to 16 nM.
Next, `Cn1c(CCc2ccc(C(=N)N)cc2)nc2cc(N(Cc3cccc4ccccc34)C(=O)CNCc3ccc(N4CCCC4)cc3)ccc21` [Example 82, N-{2-[2-(4-Amidinophenyl)-ethyl]-1-methyl-benzimidazol-5-yl}-N-( - naphthylmethyl)-[2-(N-4-pyrrolidin-1-ylbenzylamino)-acetamide]-dihydrochloride]: 4.9 nM.
For `Cn1c(CCc2ccc(C(=N)N)cc2)nc2cc(N(Cc3ccccc3)C(=O)CCCNC(=N)N)ccc21` [Example 39, N-{2-[2-(4-Amidinophenyl)-ethyl]-1-methyl-benzimidazol-5-yl}-N-benzyl-[4-guanidino-butanoic acid amide]-dihydrochloride], the IC50 is 77 nM.
For `CN(C)CCCCC(=O)N(Cc1cccc2ccccc12)c1ccc2c(c1)nc(CCc1ccc(C(=N)N)cc1)n2C` [Example 25, N-{2-[2-(4-Amidinophenyl)-ethyl]-1-methyl-benzimidazol-5-yl}-N-( - naphthylmethyl)-[5-dimethylamino-pentanoic acid amide]-dihydrochloride] the value was 33 nM; for `CN(C(=O)CCC1CCN(Cc2ccccc2)CC1)c1ccc2c(c1)nc(CCc1ccc(C(=N)N)cc1)n2C` [Example 2, N-{2-[2-(4-Amidinophenyl)-ethyl]-1-methyl-benzimidazol-5-yl}-N-methyl-[3-(N-benzyl-piperid-4-yl)-propionamide]-dihydrochloride], 190 nM; for `CN(C)CCN(C)CC(=O)N(Cc1cccc2ccccc12)c1ccc2c(c1)nc(CCc1ccc(C(=N)N)cc1)n2C` [Example 41, N-{2-[2-(4-Amidinophenyl)-ethyl]-1-methyl-benzimidazol-5-yl}-N-(α-naphthylmethyl)-[2-(N-(2-dimethylaminoethyl)-N-methylamino)-acetamide]-trihydrochloride], 18 nM.
For `Cn1c(CCc2ccc(C(=N)N)cc2)nc2cc(N(Cc3cccc4ccccc34)C(=O)CN3CCC(O)(Cc4ccccc4)CC3)ccc21` [Example 69, N-{2-[2-(4-Amidinophenyl)-ethyl]-1-methyl-benzimidazol-5-yl}-N-( - naphthylmethyl)-[2-(4-benzyl-4-hydroxypiperidin-1-yl)-acetamide]-dihydrochloride] the value was 18 nM.
For `COc1ccc(CNCC(=O)N(Cc2ccc3ccccc3c2)c2ccc3c(c2)nc(CCc2ccc(C(=N)N)cc2)n3C)cc1` [Example 57, N-{2-[2-(4-Amidinophenyl)-ethyl]-1-methyl-benzimidazol-5-yl}-N-(β-naphthylmethyl)-[4-methoxybenzylamino-acetamide]-dihydrochloride], the IC50 came out at 26 nM.
For `Cn1c(CCc2ccc(C(=N)N)cc2)nc2cc(N(Cc3cccc4ccccc34)C(=O)CCC3CCN(C(c4ccccc4)c4ccccc4)CC3)ccc21` [Example 64, N-{2-[2-(4-Amidinophenyl)-ethyl]-1-methyl-benzimidazol-5-yl}-N-( - naphthylmethyl)-[3-(1-diphenylmethyl-piperidin-4-yl)-propionamide]-trihydrochloride] the value was 25 nM; for `CN(C)CCCCC(=O)N(Cc1ccccc1)c1ccc2c(c1)nc(CCc1ccc(C(=N)N)cc1)n2C` [Example 26, N-{2-[2-(4-Amidinophenyl)-ethyl]-1-methyl-benzimidazol-5-yl}-N-benzyl-[5-dimethylamino-pentanoic acid amide]-dihydrochloride], 53 nM; for `Cn1c(CCc2ccc(C(=N)N)cc2)nc2cc(N(Cc3ccc4ccccc4c3)C(=O)CCCc3ccc(N)cc3)ccc21` [Example 55, N-{2-[2-(4-Amidinophenyl)-ethyl]-1-methyl-benzimidazol-5-yl}-N-(β-naphthylmethyl)-[4-(4-aminophenyl)-butyroamide]-dihydrochloride], 172 nM.
For `Cn1c(CCc2ccc(C(=N)N)cc2)nc2cc(N(Cc3ccc4ccccc4c3)C(=O)CCC3CCN(Cc4ccccc4)CC3)ccc21` [Example 50] the value was 72 nM; for `Cn1c(CCc2ccc(C(=N)N)cc2)nc2cc(N(Cc3cccc4ccccc34)C(=O)CCc3ccccn3)ccc21` [Example 68, N-{2-[2-(4-Amidinophenyl)-ethyl]-1-methyl-benzimidazol-5-yl}-N-( - naphthylmethyl)-[3-(pyridin-2-yl)-propionamide]-hydrochloride], 38 nM; for `Cn1c(CCc2ccc(C(=N)N)cc2)nc2cc(N(Cc3cccc4ccccc34)C(=O)CCCc3ccc([N+](=O)[O-])cc3)ccc21` [Example 42, N-{2-[2-(4-Amidinophenyl)-ethyl]-1-methyl-benzimidazol-5-yl}-N-(α-naphthylmethyl)-[4-(4-nitrophenyl)-butyroamide]-hydrochloride], 11 nM.
For `Cn1c(CCc2ccc(C(=N)N)cc2)nc2cc(N(Cc3cccc4ccccc34)C(=O)CCc3cccc(C(=N)N)c3)ccc21` [Example 19, N-{2-[2-(4-Amidinophenyl)-ethyl]-1-methyl-benzimidazol-5-yl}-N-- naphthylmethyl-[3-(3-amidinophenyl)-propionamide]-dihydrochloride], the IC50 stood at 16 nM.
Next, `Cn1c(CCc2ccc(C(=N)N)cc2)nc2cc(N(Cc3cccc4ccccc34)C(=O)CN3CCCCC3)ccc21` [Example 81, N-{2-[2-(4-Amidinophenyl)-ethyl]-1-methyl-benzimidazol-5-yl}-N-( - naphthylmethyl)-[2-(piperidin-1-yl)-acetamide]-dihydrochloride]: 63.1 nM; `CN(C)CCCC(=O)N(Cc1cccc2ccccc12)c1ccc2c(c1)nc(CCc1ccc(C(=N)N)cc1)n2C` [Example 29, N-{2-[2-(4-Amidinophenyl)-ethyl]-1-methyl-benzimidazol-5-yl}-N-( - naphthylmethyl)-[4-dimethylamino-butanoic acid amide]-dihydrochloride]: 38 nM.
On to `Cn1c(CCc2ccc(C(=N)N)cc2)nc2cc(N(Cc3cccc4ccccc34)C(=O)CNCc3ccc(F)cc3)ccc21` [Example 61, N-{2-[2-(4-Amidinophenyl)-ethyl]-1-methyl-benzimidazol-5-yl}-N-( - naphthylmethyl)-[2-(4-fluorobenzylamino)-acetamide]-dihydrochloride], for which the IC50 is 39 nM.
For `Cn1c(CCc2ccc(C(=N)N)cc2)nc2cc(N(Cc3cccc4ccccc34)C(=O)CCCCCN)ccc21` [Example 31, N-{2-[2-(4-Amidinophenyl)-ethyl]-1-methyl-benzimidazol-5-yl}-N-( - naphthylmethyl)-[6-amino-hexanoic acid amide]-dihydrochloride] the value was 30 nM.
For `Cn1c(CCc2ccc(C(=N)N)cc2)nc2cc(N(Cc3ccc4ccccc4c3)C(=O)CNCc3ccc([N+](=O)[O-])cc3)ccc21` [Example 53, N-{2-[2-(4-Amidinophenyl)-ethyl]-1-methyl-benzimidazol-5-yl}-N-(β-naphthylmethyl)-[2-(4-nitrobenzylamino)-acetamide]-hydrochloride] the value was 92 nM.
For `Cn1c(CCc2ccc(C(=N)N)cc2)nc2cc(N(Cc3ccc(N)cc3)C(=O)CNCc3ccc(N)cc3)ccc21` [Example 73, N-{2-[2-(4-Amidinophenyl)-ethyl]-1-methyl-benzimidazol-5-yl}-N-(4-aminobenzyl)-[2-(4-aminobenzylamino)-acetamide]-dihydrochloride] the value was 13.1 nM; for `Cn1c(CCc2ccc(C(=N)N)cc2)nc2cc(N(Cc3cccc4ccccc34)C(=O)CNCc3ccc(-c4ccccc4)cc3)ccc21` [Example 45, N-{2-[2-(4-Amidinophenyl)-ethyl]-1-methyl-benzimidazol-5-yl}-N-( - naphthylmethyl)-[2-(4-phenylbenzylamino)-acetamide]-dihydrochloride], 12 nM; for `Cn1c(CCc2ccc(C(=N)N)cc2)nc2cc(N(Cc3cccc4ccccc34)C(=O)CN3CCC[C@H]3C(N)=O)ccc21` [Example 72], 58.4 nM.
`Cn1c(CCc2ccc(C(=N)N)cc2)nc2cc(N(Cc3cccc4ccccc34)C(=O)CCC3CCNCC3)ccc21` [Example 38, N-{2-[2-(4-Amidinophenyl)-ethyl]-1-methyl-benzimidazol-5-yl}-N-( - naphthylmethyl)-[3-(piperidin-4-yl)-propionamide]-dihydrochloride]: the IC50 came out at 47 nM.
For `CN(CC(=O)N(Cc1cccc2ccccc12)c1ccc2c(c1)nc(CCc1ccc(C(=N)N)cc1)n2C)Cc1ccc(N2CCCC2)cc1` [Example 83, N-{2-[2-(4-Amidinophenyl)-ethyl]-1-methyl-benzimidazol-5-yl}-N-( - naphthylmethyl)-[2-(N-(4-pyrrolidin-1-ylbenzyl)-N-methylamino)-acetamide]-dihydrochloride] the value was 7.6 nM.
